Read-outs that look alike come from different tables or passages of the source.
Legend:
[1] = system: HUVEC cells; experiment: EF-induced reorientation of endothelial cells, drug inhibition (orientation index Oi); assay type: cell-based
Protocol: HUVEC cells were seeded in a trough formed by two parallel (1 cm apart) strips of glass coverslip (No. 1, length of 22 mm) fixed to the base of the dish with silicone grease. Scratch lines were made perpendicular to the long axis of the chamber with a fine sterile needle and used as reference marks for directed cell migration. Cells were incubated for 24-48 hours (37° C., 5% CO2) before a roof coverslip was applied and sealed with silicone grease. The final dimensions of the chamber, through which current was passed, were 22×10×0.2 mm. Agar-salt bridges not less than 15 cm long were used to connect silver/silver-chloride electrodes in beakers of Steinberg's solution (58 mM NaCl, 0.67 mM KCl, 0.44 mM Ca(NO3)2, 1.3 mM MgSO4, 4.6 mM Trizma base, pH 7.8-8.0), to pools of excess culture medium at either side of the chamber. Field strengths were measured directly at the beginning of, the end of and during each experiment. No fluctuations in field strength were observed. […] The same concentration of drug was present during EF (electric field) exposure in a CO2 incubator.
A series of images was taken with an image analyser immediately before EF exposure and at 4, 8 and 24 hours of EF exposure. Cell orientation was quantified as an orientation index (Oi), which is defined as Oi=cos 2(α), where α is the angle formed by the long axis of a cell with a line drawn perpendicular to the field lines. A cell with its long axis parallel to the vector of the EF will have an Oi of −1, and a cell with its long axis exactly perpendicular to the EF vector will have an Oi of +1. A randomly oriented population of cells will have an average Oi {defined as [Σn cos 2(α)]÷n} of 0. The significance of this two-dimensional orientation distribution against randomness was calculated using Rayleigh's distribution. A long:short axis ratio was calculated for assessment of elongation.

[2] = system: HUVEC cells; experiment: EF-induced elongation of endothelial cells, drug inhibition (long:short axis ratio); assay type: cell-based; details: for long:short axis ratio / long axis in EF-treated cells: drug 50 μM
Protocol: HUVEC cells were seeded in a trough formed by two parallel (1 cm apart) strips of glass coverslip (No. 1, length of 22 mm) fixed to the base of the dish with silicone grease. Scratch lines were made perpendicular to the long axis of the chamber with a fine sterile needle and used as reference marks for directed cell migration. Cells were incubated for 24-48 hours (37° C., 5% CO2) before a roof coverslip was applied and sealed with silicone grease. The final dimensions of the chamber, through which current was passed, were 22×10×0.2 mm. Agar-salt bridges not less than 15 cm long were used to connect silver/silver-chloride electrodes in beakers of Steinberg's solution (58 mM NaCl, 0.67 mM KCl, 0.44 mM Ca(NO3)2, 1.3 mM MgSO4, 4.6 mM Trizma base, pH 7.8-8.0), to pools of excess culture medium at either side of the chamber. Field strengths were measured directly at the beginning of, the end of and during each experiment. No fluctuations in field strength were observed. […] (50 μM), the Rho kinase inhibitor Y27632 (50 μM), both Akt and Rho kinase inhibitors (10 μM each) or latrunculin (50 nM) for 1 hour before EF stimulation. The same concentration of drug was present during EF (electric field) exposure in a CO2 incubator.
A series of images was taken with an image analyser immediately before EF exposure and at 4, 8 and 24 hours of EF exposure. Cell orientation was quantified as an orientation index (Oi), which is defined as Oi=cos 2(α), where α is the angle formed by the long axis of a cell with a line drawn perpendicular to the field lines. A cell with its long axis parallel to the vector of the EF will have an Oi of −1, and a cell with its long axis exactly perpendicular to the EF vector will have an Oi of +1. […] The significance of this two-dimensional orientation distribution against randomness was calculated using Rayleigh's distribution. A long:short axis ratio was calculated for assessment of elongation.
HUVEC cells elongated dramatically in an EF. […] We quantified the elongation of the cells using a long:short axis ratio. […]

[3] = drug 50 μM, 1 hour before and during EF

1-L-6-hydroxymethyl-chiro-inositol 2-[(R)-2-O-methyl-3-O-octadecylcarbonate] [Akt inhibitor]
reorientation / orientation response of cells in an EF [1, 3]: significantly decreased
long:short axis ratio / long axis in EF-treated cells [2]: significantly decreased

C/C1=C/C(=O)O[C@@H]2C[C@@H](CC[C@H](C)/C=C\C=C\CC1)O[C@@](O)([C@@H]1CSC(=O)N1)C2 [Latrunculin A]
orientation response in EF ([1]; latrunculin 50 nM): suppressed the orientation response significantly
EF-induced elongation response ([2]; latrunculin 50 nM): completely abolished

N#CC(=C(/N)Sc1ccccc1N)/C(C#N)=C(\N)Sc1ccccc1N [U0126]
orientation index Oi [1]: 0.33±0.03
reorientation / orientation response of cells in an EF [1]: decreased the orientation to a similar extent

COc1cc2ncnc(Nc3ccc(Cl)cc3F)c2cc1OC [VEGFR inhibitor, 4-[(4′-chloro-2′-fluoro)phenylamino]-6,7-dimethoxyquinazoline]
reorientation / orientation response of cells in an EF [1, 3]: completely abolished

C[C@@H](N)[C@H]1CC[C@H](C(=O)Nc2ccncc2)CC1 [Y27632]
orientation index Oi ([1]; 10 μM): 0.55±0.05
orientation response in EF ([1]; 10 μM, 20 μM and 50 μM): decreased the orientation response significantly
orientation index Oi ([1]; 20 μM): 0.45±0.05
orientation index Oi ([1]; 50 μM): 0.24±0.05
long:short axis ratio / long axis in EF-treated cells [2]: significantly decreased

Source: patent publication US20170128720A1, “METHODS AND DEVICES FOR MODULATING GENE EXPRESSION AND ENZYME ACTIVITY” (VOMARIS INNOVATIONS, INC, priority 2014, published 2017)
